Earlier results as cited in patent US20240285565A1, “USE OF (S)-3-AMINO-4-(DIFLUOROMETHYLENYL)CYCLOPENT-1-ENE-1-CARBOXYLIC ACID IN THE TREATMENT OF DIABETES AND PRE-DIABETES” (Ovid Therapeutics Inc., priority 2023, published 2024).

Legend:
[1] = target: aspartate aminotransferase (Asp-AT)
[2] = target: alanine aminotransferase (Ala-AT)
OAT = target: T1, OAT (Homo sapiens, UniProt P04181)
T1 sequence (P04181 26-439): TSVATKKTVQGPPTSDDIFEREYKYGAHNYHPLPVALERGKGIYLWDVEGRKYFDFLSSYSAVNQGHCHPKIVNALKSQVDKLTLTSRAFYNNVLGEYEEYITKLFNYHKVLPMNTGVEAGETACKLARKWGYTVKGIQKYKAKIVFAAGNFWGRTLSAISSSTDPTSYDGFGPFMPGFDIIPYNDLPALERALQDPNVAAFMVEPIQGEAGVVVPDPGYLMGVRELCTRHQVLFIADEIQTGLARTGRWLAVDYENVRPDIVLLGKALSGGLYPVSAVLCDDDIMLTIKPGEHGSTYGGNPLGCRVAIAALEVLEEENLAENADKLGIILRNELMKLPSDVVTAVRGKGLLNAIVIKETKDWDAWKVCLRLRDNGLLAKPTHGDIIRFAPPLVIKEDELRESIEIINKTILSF

For `N[C@H]1C=C(C(=O)O)CC1=C(F)F` [(S)-3-amino-4-(difluoromethylenyl)cyclopent-1-ene-1-carboxylic acid], which IC50 ([1]; reversible inhibition) is on record?
The IC50 was > 4 mM.

What about the IC50 ([2]; reversible inhibition) of the same compound?
The IC50 was > 4 mM.

And the “Kinact/K1 (OAT)” value (OAT)?
Its value is 127 M⁻¹ s⁻¹.

What about the “times more efficient an inactivator of OAT than CPP-115” value (OAT; ratio of Kinact/K1 relative to CPP-115) of the same compound?
Its value is 9.0 times.

Which results are given for `N[C@H]1C[C@@H](C(=O)O)CC1=C(F)F` [CPP-115, (1S,3S)-3-amino+difluoromethylenyl-1-cyclopentanoic acid, reference compound]?
inactivation or inhibition of Asp-AT ([1]; result in words): not to inactivate or inhibit; inactivation or inhibition of Ala-AT ([2]; result in words): not to inactivate or inhibit; Ki (OAT; read-out: K1 (OAT)): 0.116 mM
